The experiment has as its system P388 leukemia ip, CD2F1 mice, survival T/C. In words: NCI In Vivo Anticancer Drug Screen. Data for tumor model P388 Leukemia (intraperitoneal) in CD2F1 (CDF1) mice. The conditions noted are these: endpoint: median survival time, higher = longer survival. The method, boiled down: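 Mice carrying the transplanted tumor received test compound or vehicle. Survival was recorded in each group, and the value is the treated-group measurement divided by that of the vehicle-treated control group.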

Setting [1] is: dose: 60.0 mg/kg/injection, schedule: Q01DX005 (ip), vehicle: saline with Tween-80.
Setting [2] is: dose: 120.0 mg/kg/injection, schedule: Q01DX005 (ip), vehicle: saline with Tween-80.
[3] abbreviates: dose: 50.0 mg/kg/injection, schedule: Q01DX009 (ip), vehicle: Klucel (hydroxypropylcellulose) (HPC).
Where [4] appears, read: dose: 100.0 mg/kg/injection, schedule: Q01DX009 (ip), vehicle: Klucel (hydroxypropylcellulose) (HPC).
The mark [5] stands for this setting: dose: 50.0 mg/kg/injection, schedule: Q01DX009 (ip), vehicle: saline with Tween-80.
Setting [6] is: dose: 100.0 mg/kg/injection, schedule: Q01DX009 (ip), vehicle: saline with Tween-80.
[7] abbreviates: dose: 200.0 mg/kg/injection, schedule: Q01DX009 (ip), vehicle: saline with Tween-80.

Inconclusive results and toxic doses are left out.

Consider `O/N=C/C1CCCC[N-]1.[Co+3].[O-]/N=C/C1CCCC[N-]1.[O-]/N=C/C1CCCC[N-]1.[O-][Cl+3]([O-])([O-])O` (stereo not drawn), for which the T/C is 97 % of control under setting [1]; 103 % of control under setting [2]; 104 % of control (dose: 240.0 mg/kg/injection, schedule: Q01DX005 (ip), vehicle: saline with Tween-80).

`[N-]=[N+]=CC(=O)NCC(=O)NN=C(CO)CO`: the T/C is, setting by setting: (dose: 180.0 mg/kg/injection, schedule: Q01DX009 (ip), vehicle: water) 154 % of control; (dose: 270.0 mg/kg/injection, schedule: Q01DX009 (ip), vehicle: water) 172 % of control; (dose: 400.0 mg/kg/injection, schedule: Q01DX009 (ip), vehicle: water) 172 % of control; (dose: 600.0 mg/kg/injection, schedule: Q01DX009 (ip), vehicle: water) 181 % of control.

Turning to `CC(C)N1CC(CCO)C(c2ccccc2)(c2ccccc2)C1` (stereo not drawn), the T/C runs as follows: under setting [3], 99 % of control; under setting [4], 97 % of control; (dose: 200.0 mg/kg/injection, schedule: Q01DX009 (ip), vehicle: Klucel (hydroxypropylcellulose) (HPC)) 106 % of control.

Take `CCCN(C)CC(=O)NC(Cc1ccccc1)c1ccccc1` (stereo not drawn): the T/C is 94 % of control (dose: 30.0 mg/kg/injection, schedule: Q01DX005 (ip), vehicle: Klucel (hydroxypropylcellulose) (HPC)); 93 % of control (dose: 60.0 mg/kg/injection, schedule: Q01DX005 (ip), vehicle: Klucel (hydroxypropylcellulose) (HPC)); 104 % of control (dose: 120.0 mg/kg/injection, schedule: Q01DX005 (ip), vehicle: Klucel (hydroxypropylcellulose) (HPC)).

As for `COC(=O)CCC(=S)N(C)C`, the T/C runs as follows: (dose: 50.0 mg/kg/injection, schedule: Q01DX005 (ip), vehicle: Klucel (hydroxypropylcellulose) (HPC)) 101 % of control; (dose: 100.0 mg/kg/injection, schedule: Q01DX005 (ip), vehicle: Klucel (hydroxypropylcellulose) (HPC)) 101 % of control; (dose: 200.0 mg/kg/injection, schedule: Q01DX005 (ip), vehicle: Klucel (hydroxypropylcellulose) (HPC)) 103 % of control.

Turning to `CC(=O)OC1C(C)OC(OC(=O)C2CCC3C(C2)OC2(CC(OC(=O)/C=C/c4ccccc4)C(C)CO2)C32CO2)C(OC2OC(C)C(O)C(OC(C)=O)C2O)C1O` (stereo not drawn), the T/C is 97 % of control (dose: 0.62 mg/kg/injection, schedule: Q01DX009 (ip), vehicle: saline + alcohol); 97 % of control (dose: 0.75 mg/kg/injection, schedule: Q01DX005 (ip), vehicle: saline + alcohol); 105 % of control (dose: 1.25 mg/kg/injection, schedule: Q01DX009 (ip), vehicle: saline + alcohol); 106 % of control (dose: 1.5 mg/kg/injection, schedule: Q01DX005 (ip), vehicle: saline + alcohol); 113 % of control (dose: 1.67 mg/kg/injection, schedule: Q01DX009 (ip), vehicle: saline + alcohol); 104 % of control (dose: 1.75 mg/kg/injection, schedule: Q01DX009 (ip), vehicle: saline + alcohol). In addition, the T/C reads like this: (dose: 2.5 mg/kg/injection, schedule: Q01DX009 (ip), vehicle: saline + alcohol) 105 % of control; (dose: 3.0 mg/kg/injection, schedule: Q01DX005 (ip), vehicle: saline + alcohol) 114 % of control; (dose: 3.5 mg/kg/injection, schedule: Q01DX009 (ip), vehicle: saline + alcohol) 108 % of control; (dose: 5.0 mg/kg/injection, schedule: Q01DX009 (ip), vehicle: saline + alcohol) 106 % of control; (dose: 6.0 mg/kg/injection, schedule: Q01DX005 (ip), vehicle: saline + alcohol) 115 % of control; (dose: 6.68 mg/kg/injection, schedule: Q01DX009 (ip), vehicle: saline + alcohol) 152 % of control. Besides, the T/C runs as follows: (dose: 7.0 mg/kg/injection, schedule: Q01DX009 (ip), vehicle: saline + alcohol) 110 % of control; (dose: 13.35 mg/kg/injection, schedule: Q01DX009 (ip), vehicle: saline + alcohol) 111 % of control; (dose: 14.0 mg/kg/injection, schedule: Q01DX009 (ip), vehicle: saline + alcohol) 118 % of control.

As to `CC1(C)C(=O)OC(n2cc(F)c(=O)[nH]c2=O)C1=O` (stereo not drawn), the T/C was 105 % of control (dose: 11.25 mg/kg/injection, schedule: Q04DX002 (ip), vehicle: distilled water + Tween-80); 105 % of control (dose: 22.5 mg/kg/injection, schedule: Q04DX002 (ip), vehicle: distilled water + Tween-80); 116 % of control (dose: 45.0 mg/kg/injection, schedule: Q04DX002 (ip), vehicle: distilled water + Tween-80); 110 % of control (dose: 45.0 mg/kg/injection, schedule: Q04DX002 (ip), vehicle: saline with Tween-80); 116 % of control (dose: 90.0 mg/kg/injection, schedule: Q04DX002 (ip), vehicle: distilled water + Tween-80); 90 % of control (dose: 360.0 mg/kg/injection, schedule: Q04DX002 (ip), vehicle: distilled water + Tween-80). Further, the T/C (dose: 360.0 mg/kg/injection, schedule: Q04DX002 (ip), vehicle: saline with Tween-80) was 160 % of control.

Regarding `CCC[n+]1ccc(/C=N\NC(N)=S)c2ccccc21`, the T/C under setting [5] is 110 % of control, the T/C under setting [6] was 121 % of control and the T/C under setting [7] is 112 % of control.

Consider `CN(C)c1cc(=O)c2ccc3ccccc3c2o1`, for which the T/C was 96 % of control under setting [5], 96 % of control under setting [6] and 93 % of control under setting [7].

For the compound `CC1=Nc2ccccc2NC(=O)C1`, the T/C reads like this: (dose: 12.5 mg/kg/injection, schedule: Q01DX009 (ip), vehicle: Klucel (hydroxypropylcellulose) (HPC)) 99 % of control; (dose: 25.0 mg/kg/injection, schedule: Q01DX009 (ip), vehicle: Klucel (hydroxypropylcellulose) (HPC)) 108 % of control; under setting [3], 100 % of control; under setting [4], 108 % of control.

For `CCN(CC)CCC(=O)Nc1cccc2c1C(=O)c1c(c(O)c3ccccc3c1O)C2=O`, the T/C reads like this: (dose: 6.25 mg/kg/injection, schedule: Q04DX003 (ip), vehicle: Klucel (hydroxypropylcellulose) (HPC)) 100 % of control; (dose: 12.5 mg/kg/injection, schedule: Q04DX003 (ip), vehicle: Klucel (hydroxypropylcellulose) (HPC)) 100 % of control; (dose: 25.0 mg/kg/injection, schedule: Q04DX003 (ip), vehicle: Klucel (hydroxypropylcellulose) (HPC)) 104 % of control; (dose: 25.0 mg/kg/injection, schedule: Q04DX003 (ip), vehicle: saline) 98 % of control; (dose: 50.0 mg/kg/injection, schedule: Q04DX003 (ip), vehicle: Klucel (hydroxypropylcellulose) (HPC)) 100 % of control; (dose: 50.0 mg/kg/injection, schedule: Q04DX003 (ip), vehicle: saline) 92 % of control. Also, the T/C was 106 % of control (dose: 100.0 mg/kg/injection, schedule: Q04DX003 (ip), vehicle: Klucel (hydroxypropylcellulose) (HPC)); 108 % of control (dose: 100.0 mg/kg/injection, schedule: Q04DX003 (ip), vehicle: saline); 100 % of control (dose: 200.0 mg/kg/injection, schedule: Q04DX003 (ip), vehicle: saline).

For `CSC(=CC(=O)c1ccco1)SC`, the T/C is 98 % of control under setting [1] and 96 % of control under setting [2].

Consider `O/N=C/c1cnns1`, for which the T/C by setting is: (dose: 50.0 mg/kg/injection, schedule: Q01DX005 (ip), vehicle: saline with Tween-80) 105 % of control; (dose: 100.0 mg/kg/injection, schedule: Q01DX005 (ip), vehicle: saline with Tween-80) 100 % of control; (dose: 200.0 mg/kg/injection, schedule: Q01DX005 (ip), vehicle: saline with Tween-80) 100 % of control.

With `CC12CCC3C(CCC4N(CCCl)CCCC34C)C1CCC2O` (stereo not drawn), the T/C reads like this: (dose: 25.0 mg/kg/injection, schedule: Q01DX001 (ip), vehicle: saline) 101 % of control; (dose: 50.0 mg/kg/injection, schedule: Q01DX001 (ip), vehicle: saline) 109 % of control; (dose: 100.0 mg/kg/injection, schedule: Q01DX001 (ip), vehicle: saline) 111 % of control.

As to `CC(C)(C)c1ccc(C(c2ccc(C(C)(C)C)cc2)C(Cl)(Cl)Cl)cc1`, the T/C (dose: 100.0 mg/kg/injection, schedule: Q04DX003 (ip), vehicle: saline with Tween-80) is 104 % of control; the T/C (dose: 200.0 mg/kg/injection, schedule: Q04DX003 (ip), vehicle: saline with Tween-80) was 100 % of control; the T/C (dose: 400.0 mg/kg/injection, schedule: Q04DX003 (ip), vehicle: saline with Tween-80) is 100 % of control.

These data come from PubChem BioAssay AID330 (DTP/NCI, 2004).
